Test results reported in US6756480B2, “Modulators of receptors for parathyroid hormone and parathyroid hormone-related protein” (Amgen Inc., priority 2000, dated 2004).
Where two headings read alike, the source gives them in different places. No end group written: not given here.

How the values were obtained:
PTH-1 receptor = biological target: T1, PTH-1 receptor (Homo sapiens, UniProt Q03431); details: cited from earlier work
T1 sequence (Q03431 27-593): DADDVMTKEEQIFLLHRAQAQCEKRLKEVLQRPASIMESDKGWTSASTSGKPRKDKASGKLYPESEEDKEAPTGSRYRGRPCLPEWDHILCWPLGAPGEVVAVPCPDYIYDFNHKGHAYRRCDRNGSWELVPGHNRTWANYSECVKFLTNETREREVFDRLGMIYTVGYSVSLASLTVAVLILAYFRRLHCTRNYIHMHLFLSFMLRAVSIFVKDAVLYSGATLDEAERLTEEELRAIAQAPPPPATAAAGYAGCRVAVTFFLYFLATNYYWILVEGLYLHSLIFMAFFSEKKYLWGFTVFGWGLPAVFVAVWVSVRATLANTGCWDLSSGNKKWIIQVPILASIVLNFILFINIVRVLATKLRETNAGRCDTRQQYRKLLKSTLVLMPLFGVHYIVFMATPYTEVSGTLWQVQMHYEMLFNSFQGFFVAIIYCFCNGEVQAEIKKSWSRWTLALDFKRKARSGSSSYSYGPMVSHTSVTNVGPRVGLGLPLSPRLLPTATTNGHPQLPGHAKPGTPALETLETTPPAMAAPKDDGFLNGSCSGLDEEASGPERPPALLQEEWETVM

healthy humans = details: infusion, unlike PTH-(1-34); cited from earlier work
rat PTH-1 receptor = biological target: T2, rat PTH-1 receptor (Rattus norvegicus, UniProt P25961); details: cited from earlier work
T2 sequence (P25961 27-591): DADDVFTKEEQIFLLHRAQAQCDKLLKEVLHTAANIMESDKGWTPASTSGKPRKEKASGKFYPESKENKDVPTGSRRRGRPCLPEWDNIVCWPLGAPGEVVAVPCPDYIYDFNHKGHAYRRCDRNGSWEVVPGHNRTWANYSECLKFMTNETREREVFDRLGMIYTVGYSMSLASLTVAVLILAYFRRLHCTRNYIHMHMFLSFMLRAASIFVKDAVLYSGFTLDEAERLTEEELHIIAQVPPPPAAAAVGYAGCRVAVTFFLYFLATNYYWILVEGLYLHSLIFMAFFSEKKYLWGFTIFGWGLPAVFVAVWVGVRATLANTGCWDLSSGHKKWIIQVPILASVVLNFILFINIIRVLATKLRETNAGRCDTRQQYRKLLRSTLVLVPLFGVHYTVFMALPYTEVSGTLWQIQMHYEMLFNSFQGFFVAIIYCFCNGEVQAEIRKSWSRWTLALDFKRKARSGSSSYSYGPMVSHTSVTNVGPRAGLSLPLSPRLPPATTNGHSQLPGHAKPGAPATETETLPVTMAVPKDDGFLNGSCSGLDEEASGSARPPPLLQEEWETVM

mice [1] = experiment: Acute hypercalcemia induced by PTHrP-(1-34) challenge, antagonist given SC, blood ionized calcium; type: in vivo; details: 0.5 mg/kg SC, vehicle-treated mice
Experimental: Normal male mice were injected SC with vehicle (PBS, circles) or with human PTHrP-(1-34) at 0.5 mg/kg (squares). PTHrP-challenged mice were then immediately injected SC with [Asn10,Leu11]PTHrP-(7-34)-Fc at 10 mg/kg (triangles) or 30 mg/kg (diamonds). Data represent group means, with an n of 6 mice/group.
We have cloned, expressed and purified [Asn10,Leu11]PTHrP-(7-34)-Fc. We tested the ability of this compound to antagonize both acute and chronic hypercalcemia responses in mice. PTHrP-(1-34) was used as a calcemic agent to evaluate the acute effects of [Asn10,Leu11]PTHrP-(7-34)-Fc. Because PTHrP is the principal mediator of HHM, this study also represents a model for hypercalcemia-inducing tumors. Briefly, blood ionized calcium (BIC) was measured at baseline, and mice were then challenged with vehicle (PBS) or with PTHrP-(1-34) (0.5 mg/kg) by SC injection. Mice were then treated once SC with varying doses of [Asn10,Leu11]PTHrP-(7-34)-Fc, or with vehicle (PBS). In vehicle-treated mice challenged with PTHrP-(1-34), a transient hypercalcemic response was observed. The peak calcemic response occurred at 3 h post challenge, and persisted until at least 6 h post challenge.

mice [2] = experiment: Mouse bioassay: SC injection days 0, 5, 10; clinical chemistry (calcium, AP, TRAP) and tibial pQCT; type: in vivo; details: for serum TRAP (osteoclast marker) / calcemic potency among the 3 Fc peptides: mice; for serum TRAP (osteoclast marker): after single SC injection; for calcemic potency among the 3 Fc peptides: serum calcium
Experimental: Peripheral blood was obtained daily for 3 days following single subcutaneous injections of the indicated compounds.
Peripheral quantitative computed tomography (pQCT) was performed on the proximal tibial metaphysis of mice on day 15, after injections of PTH constructs on day 0, 5 and 10.
We then tested the effects of PTH-(1-34), PTH-(1-34)-Fc, PTH-(1-31)-Fc and PTH-(1-30)-Fc in mice. Four week old male mice were injected on days 0, 5, and 10 with vehicle or with PTH fragments, by SC injection. Peripheral blood was obtained for clinical chemistry at 24, 48, and 72 h. Mice were killed on day 15, vertebrae, tibiae and femurs were harvested for histology and one tibia was collected for bone density measurements (peripheral quantitative computed tomography, pQCT). Clinical chemistry endpoints included total serum calcium, serum alkaline phosphatase (AP, a marker of osteoblast activity), and serum tartrate-resistant acid phosphatase (TRAP, a marker of osteoclast activity). For each animal, the ratio of AP:TRAP was calculated as an index of relative osteoblast activity compared to osteoclast activity. A higher AP:TRAP ratio would indicate a potentially more anabolic agent.

[3] = in vivo, circulating; cited from earlier work
OVX rats = details: cited from earlier work
[4] = tested on: aged ovariectomized (OVX) rats; experiment: Monotherapy in aged ovariectomized (OVX) rats: twice-weekly treatment, BMD by DEXA and serum calcium; type: in vivo
Experimental: Eleven months after OVX, rats were treated twice per week with phosphate-buffered saline (PBS, vehicle) or with APD (0.5 mg/kg) or with PTH-(1-34)-Fc (50 nmol/kg). DEXA was performed weekly. Blood was drawn 24 hours after the second weekly injection, when the calcemic effects of PTH-Fc are typically maximal. The effects of PTH-Fc administration on lumbar BMD (FIG. 11A), tibia/femur BMD (FIG. 11B), femoral metaphysis BMD (FIG. 11C), and serum calcium (FIG. 11D) were determined.
Sprague Dawley rats were OVX'd at 3 months of age and allowed to lose bone for 11 months. Other rats were sham-operated and treated twice per week with vehicle (PBS). OVX rats were treated twice per week with SC injections of either vehicle or the bisphosphonate APD (pamidronate, 0.5 mg/kg), or with PTH-(1-34)-Fc (50 nmol/kg) or with APD+PTH-(1-34)-Fc. BMD was determined weekly via dual energy X-ray absorptiometry (DEXA). Rats were sacrificed after 4 weeks of treatment. At the start of treatment, OVX rats had significant reductions in BMD at all skeletal sites analyzed, compared to vehicle-treated […] (FIG. 11, p<0.05, 2-way ANOVA).

[5] = 100 nmoles/kg on day 0, 5, 10, pQCT day 15

In the case of human PTH(1-31) [hPTH-(1-31)], the “reduction of affinity for PTH-1 receptor compared to hPTH-(1-34)” value (PTH-1 receptor) is given as 1-6 fold and the “serum calcium, plasma 1,25(OH)2D3, urinary N-TX levels” value (healthy humans) is given as “failed to elevate”.
In the case of “human PTH(1-30) (SVSEIQLMHNLGKHLNSMERVEWLRKKLQD; listed as Homo sapiens) [hPTH-(1-30)]”, the “reduction of affinity for PTH-1 receptor compared to hPTH-(1-34)” value (PTH-1 receptor) is listed as 10-100 fold and the PLC activation (rat PTH-1 receptor) is listed as “weak and incomplete agonist”.
For human PTHrP(1-34) [PTHrP-(1-34)], the “persistence of calcemic response post challenge” value (mice [1]) was “at least 6 h” and the “time of peak calcemic response post challenge” value (mice [1]) was 3 h.
In the case of “PTH-(1-31)-Fc: PTH (1-31), SVSEIQLMHNLGKHLNSMERVEWLRKKLQDV, linked at its C-terminus to an Fc domain”, the “bone mineral density (proximal tibial metaphysis)” value (“bone mineral density” for short) (mice [2]; [5]) is reported as “no effect”, the “serum AP (osteoblast marker)” value (mice [2]; 300 nmoles/kg (given for PTH-(1-34)-Fc), 72 h) is reported as “significantly elevated” and the “calculated AP:TRAP ratio” value (mice [2]; high dose 1,000 nmoles/kg) is reported as “decreased”. For the same compound, the toxicity (mice [2]; higher doses 300-1,000 nmoles/kg) was “significant hypercalcemia-related toxicity”, the “calculated AP:TRAP ratio” value (mice [2]; low dose 100 nmoles/kg) was “increased” and the “serum TRAP (osteoclast marker)” value (mice [2]) was “dramatically increased”. For the same compound, the “calcemic potency among the 3 Fc peptides” value (mice [2]) was “more potent calcemic agent”.
For Parathyroid hormone [PTH], the half-life [3] is given as “less than 1 h”.
In the case of “human PTH(1-28) (SVSEIQLMHNLGKHLNSMERVEWLRKKL; listed as Homo sapiens) [PTH-(1-28)]”, the anabolic effect (OVX rats; 200 μg/kg/day) is given as “ineffective” and the anabolic effect (OVX rats; 1,000 μg/kg/day) is given as “anabolic”.
In the case of “PTH-(1-30)-Fc: PTH (1-30), SVSEIQLMHNLGKHLNSMERVEWLRKKLQD, linked at its C-terminus to an Fc domain (SVSEIQLMHNLGKHLNSMERVEWLRKKLQD-{Fc domain})”, the serum calcium (mice [2]; 100 nmoles/kg) is reported as “failed to significantly increase serum calcium”, the “bone mineral density” value (mice [2]; [5]) is reported as “greatest effect” and the “serum AP (osteoblast marker)” value (mice [2]; 1,000 nmoles/kg) is reported as “greatest elevation”. The “time of peak serum AP after injection” value (mice [2]; 1,000 nmoles/kg) was 72 h, the “bone mineral density” value (mice [2]; 1,000 nmoles/kg on day 0, 5, 10, pQCT day 15) was “least effect” and the BMD versus controls (mice [2]; all doses (100-1,000 nmoles/kg), pQCT day 15) was “greater than in controls”. The “calculated AP:TRAP ratio” value (mice [2]; high dose 1,000 nmoles/kg) was “greatest increase”, the “serum TRAP (osteoclast marker)” value (mice [2]) was “not significantly changed” and the “calcemic potency among the 3 Fc peptides” value (mice [2]) was “least calcemic”. For the same compound, the “increase in bone density compared with the other PTH constructs” value (mice [2]; pQCT day 15) was “greatest increase in bone density”.
In the case of NCCC(O)(P(=O)(O)O)P(=O)(O)O [APD, pamidronate, reference compound], the “BMD at any skeletal site compared to vehicle-treated OVX rats” value ([4]; 0.5 mg/kg twice per week) is reported as “did not significantly increase BMD” and the “effect of co-administration on calcemic effect of PTH-(1-34)-Fc” value ([4]; APD 0.5 mg/kg co-administered) is reported as “completely blocked the calcemic effect”.
